Experimental data: patent US8987285B2, “Pharmaceutical compositions, dosage forms and new forms of the compound of formula (I), and methods of use thereof” (Portola Pharmaceuticals, Inc., priority 2010, dated 2015)
Read-outs that look alike come from different tables or passages of the source.

Key:
Assay type in all cases: physicochemical
[1] = Aqueous solubility of the free acid versus pH; conditions: aqueous buffer
Text: […]. […] In certain instances, the active agent is initially present at least partly in an ionized form. In certain other instances, the active agent is initially present in an un-ionized form.

[2] = pKa, log P and log D of the compound of formula (II)
Text: The pKa of the compound of formula (II) is about 3.3, with a log P of about 2.5 and log D (pH7.4) of about −1.6.

[3] = Supersaturation stabilization experiment with PVP K90 (CheqSol)
Text: Typically the higher the super saturation, the faster and the more extensive is the precipitation which occurs. On the other hand, higher bioavailability may be achieved by using excipients which interact with the drug in the super-saturated state. In this super-saturated state, precipitation is inhibited and/or delayed, thus leading to higher luminal drug concentrations in vivo of the dissolved drug. […] The present invention thus provides a pharmaceutical composition which achieves higher bioavailability of the drug substance.

Molecule `CNc1cc2[nH]c(=O)n(-c3ccc(NC(=O)NS(=O)(=O)c4ccc(Cl)s4)cc3)c(=O)c2cc1F` [compound of formula (II), elinogrel] has a solubility ([1]; pH 1.0-7.4, read-out: aqueous solubility of the free acid form) of less than 100 µg/mL, a solubility ([1]; pH 8 or above, read-out: aqueous solubility) of no less than 1000 µg/mL and a LogP [2] of roughly 2.5. The pKa ([2]; first pKa) was “about 3.3”, the logD ([2]; pH 7.4, pH7.4) was roughly -1.6 and the pKa ([2]; read-out: second pKa) was 10.3. The stable super-saturation ([3]; PVP K90 to drug 1:1 by weight, pH>6.0, for 66 hours) was 17-86 fold, the “concentration in solution with PVP” value ([3]; after 67 h with PVP, pH 7.2) was 860 µg/mL and the solubility ([3]; aqueous buffer, pH 6.0, read-out: solubility measured by Sirius CheqSol) was 9.9 µg/mL. The solubility at 66 h ([3]; pH 7.2, aqueous buffer) was roughly 170 µg/mL.
